Experiments:
[1] = test system: detached leaves of Triticum aestivum cv. Hereward; assay: Membrane lipid peroxidation (MDA, TBA method) in detached wheat leaves during dark senescence; format: in vivo; conditions: four days in the dark, Control 18.9 (±2.2)
Procedure, shortened: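 Leaf tips from 7-day wheat seedlings were kept with compound or kinetin for four days in the dark. 100 mg tissue was extracted in 80% methanol and heated 30 min at 95 °C with 0.5% TBA/0.1% TCA. MDA came from A532 minus A600, using 155 mM^−1cm^−1.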

[2] = test system: human diploid fibroblasts (HDF cells; HDF25, HDF45, HDF80); assay: Inhibition of human cell aging: senescent cells by beta-galactosidase staining; format: cell-based; conditions: for SENESCENT CELLS (%) HDF25: human diploid fibroblasts passage 25, beta-galactosidase staining; for SENESCENT CELLS (%) HDF45: human diploid fibroblasts passage 45, beta-galactosidase staining; for SENESCENT CELLS (%) HDF80: human diploid fibroblasts passage 80, beta-galactosidase staining
Procedure, shortened: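 Cells of passages 25, 45 and 80 fixed 5 min at room temperature in 2% formaldehyde/0.2% glutaraldehyde in PBS, then incubated at 37° C with beta-galactosidase substrate. Senescent cells identified by blue staining.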

[3] = test system: excised wheat leaf tips (Triticum aestivum cv. Hereward); assay: Senescence inhibition on winter wheat leaf segments (retention of chlorophyll); format: in vivo; conditions: 10^−4 mol/L; 96 hours in the dark; activity of kinetin set at 100%
Procedure, shortened: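 First-leaf tips from 7-day-old wheat seedlings stood with their bases in test solution for 96 h in the dark at 25° C. Chlorophyll was then extracted in hot 80% ethanol and read at 665 nm. Activity at each compound's best concentration is relative to 10^−4 M kinetin (100%), as means of five replicates.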

[4] = Radical scavenging activity determined by ORAC (Oxygen Radical Absorbance Capacity); format: biochemical; conditions: Mean ± SD (n = 3); net area under the curve relative to trolox, equimolar basis
Method: The ability of compounds to scavenge free radicals in vitro was determined by Oxygen Radical Absorbance Capacity (ORAC) method. Fluorescein (100 μL, […]) and 25 μL of compound solution were added into each working well in a 96-well microplate preincubated at 37° C. Thereafter, 25 μL of 250 mM AAPH was quickly added, microplate was shaken for 5 s and the fluorescence (Ex. 485 nm, Em. 510 nm) was read every 3 min over 90 min by using microplate reader Infinite 200 (TECAN, Switzerland). The net area under the curve was used to express antioxidant activity relative to trolox which was used as a standard.

SMILES | MDA (nmol/g FW) [1] | SENESCENT CELLS (%) HDF25 [2] [%] | SENESCENT CELLS (%) HDF45 [2] [%] | SENESCENT CELLS (%) HDF80 [2] [%] | Activity (%) (s.d.), retention of chlorophyll [3] | ORAC (compound/trolox ratio) [4]
C/C(=C\CNc1ncnc2c1nc(Br)n2C1CCCCO1)CO (stereo not shown) [Compound 24, (E)-8-Bromo-6-(4-hydroxy-3-methylbut-2-en-1-ylamino)-9-(tetrahydropyran-2-yl)-9H-purine] | 11.4 (±0.9) nmol/g FW | 3 | 5 | 21 | 123 (±6) % | –
Fc1cccc(CNc2ncnc3c2nc(Br)n3C2CCCCO2)c1 (stereo not shown) [Compound 26] | – | 2 | 5 | 19 | 117 (±5) % | –
Fc1ccc(CNc2ncnc3c2nc(Br)n3C2CCCCO2)cc1F (stereo not shown) [Compound 27] | – | 2 | 4 | 21 | 124 (±4) % | –
C/C(=C\CNc1ncnc2c1nc(Cl)n2C1CCCO1)CO (stereo not shown) [Compound 64] | – | 3 | 4 | 8 | 123 (±4) % | –
COc1cccc(CNc2ncnc3c2nc(Cl)n3C2CCCO2)c1 (stereo not shown) [Compound 69] | – | 3 | 4 | 14 | 115 (±4) % | –
COc1nc2c(NCc3ccco3)ncnc2n1C1CCCCO1 (stereo not shown) [Compound 124, 6-Furfurylamino-8-methoxy-9-(tetrahydropyran-2-yl)-9H-purine] | 10.3 (±0.7) nmol/g FW | – | – | – | – | 30.1 ± 3.1
CSc1nc2c(NCc3ccco3)ncnc2n1C1CCCCO1 (stereo not shown) [Compound 145, 6-Furfurylamino-8-methylsulfanyl-9-(tetrahydropyran-2-yl)-9H-purine] | 9.6 (±0.8) nmol/g FW | – | – | – | – | 1.3 ± 0.1

Reference: patent publication US10093675B2, “6,8-disubstituted-9-(heterocyclyl)purines, compositions containing these derivatives and their use in cosmetic and medicinal applications” (USTAV EXPERIMENTALNI BOTANIKY AV CR, V.V.I., priority 2014, dated 2018)
